From patent publication US11642388B2, “Antidepressant compound preparation and preparation method thereof” (Chenland Nutritionals Inc., priority 2020, dated 2023)

Tests used:
Format in all cases: in vivo
[1] = tested on: SPF grade male C57BL/6J mice; assay: Mouse tail suspension test; conditions: 3.33 mg/kg by gavage daily for one month, last 4 minutes of 6 minutes, x ± SE
Experimental: (§1) 72 SPF grade male C57BL/6J mice which are 20±2 g in weight are selected. 6 mice are kept in each cage, free to forage and drink, and kept in a room with controlled light, temperature and humidity: the temperature is 21° C.±2° C., the humidity is 50%±10%, and the light and dark cycle is 12 hours/12 hours (light on at 20:00, light off at 8:00). All animal experiments are carried out in accordance with the guidelines on laboratory animal welfare and use issued by NIH.
(§2) After arrival, the mice are allowed to acclimate for one week before entering experiments.
(§3) The mice in the normal group are given the same volume of purified water by gavage, and the gavage doses for the mice in other groups are shown in the result tables. The mice are treated by gavage at a fixed time (9:00) every morning with a gavage volume of 0.1 mL·10 g^−1, and the administration is lasted for one month. A behavioral test is performed 1 hour after the last gavage.
In the tail suspension test, medical tape is used to suspend each mouse at ⅓ of the tail tip on a tail suspension device. The mice are suspended vertically with the heads facing camera lens, and are about 30 cm above the ground. The immobility time of each group of mice in the tail suspension test is recorded by a video camera for 6 minutes, and the tail suspension immobility time of the mice is calculated according to the last 4 minutes. […]

[2] = tested on: SPF grade male C57BL/6J mice; assay: Mouse open field test; conditions: 3.33 mg/kg by gavage daily for one month; 6 minutes; x ± SE
Experimental: The test is performed in an open field box with a length of 50 cm, a width of 50 cm, and a depth of 50 cm. The bottom surface of the open field box is equally divided into 9 squares, the area right in the middle is a central area, and the remaining areas are peripheral areas. The bottom and four sides of the open field box are all white. The test is performed in a quiet and weak red light environment. […] The total movement distance of the mice, the movement distance in the central area and the number of standing-uprights are recorded.

[3] = tested on: SPF grade male C57BL/6J mice; assay: Mouse forced swimming test (Embodiment 9); conditions: 3.33 mg/kg by gavage daily for one month, 5 minutes formal test, x ± SE
Experimental: as §1, §2, §3
When forced to swim, all the animals are respectively put in a plexiglass cylinder with a water temperature of 23° C.±1° C. and a water depth of 20 cm. After 15 minutes, the animals are transferred to a dry environment with a temperature of 30° C. and kept for 30 minutes (pretest). After 24 hours, the mice are put into the plexiglass cylinder again and kept for 5 minutes (formal test). A video camera is used during the test for recording. […]

## CNCCC(Oc1ccc(C(F)(F)F)cc1)c1ccccc1 (stereo not drawn) [Fluoxetine, fluoxetine]
[1]
  Tail suspension immobility time: 59.62 ± 6.270 s
[1]; listed as fluoxetine
  Tail suspension immobility time: significantly shorter
[2]
  Number of standing-uprights: 29.20 ± 2.133
  Total movement distance: 18435 ± 950.6 mm
[3]
  Number of floating immobilities: 54.64 ± 2.704
[3]; listed as fluoxetine
  Number of floating immobilities: significantly lower
